Results on one molecule are retold here after patent publication US20050042266A1, “Cyanoacrylate compositions containing anti-microbial agent” (priority 2003, published 2005).

A short description of data set [1]: Solubility and stability of 1 wt % triclosan in 2-octyl cyanoacrylate monomer (visual observation). It counts as physicochemical. Here is the method:
A 2-octyl cyanoacrylate monomer composition is prepared by adding 1 wt % triclosan to 2 mL of 2-octyl cyanoacrylate monomer. The mixture is sealed in a glass vial or plastic vial and stirred. The characteristics of the composition are observed at about one minute after preparation and later at least twenty-four hours after preparation.

Data set [2] can be described thus: Compatibility of triclosan/2-octyl cyanoacrylate composition with sterilization (visual observation). It counts as physicochemical. The method, then:
A 2-octyl cyanoacrylate monomer composition is prepared as in Example 1 by adding 1 wt % triclosan to 2 mL of 2-octyl cyanoacrylate monomer. The mixture is sealed in a glass vial or plastic vial and stirred.
After sitting for about twenty-four hours, the mixture contained in the plastic vial is sterilized using electron beam sterilization to a Sterility Assurance Level (SAL) of 10^−6. After sitting for about twenty-four hours, the mixture contained in the glass vial is sterilized using dry heat sterilization to a Sterility Assurance Level (SAL) of 10^−6. The characteristics of the sterilized compositions are observed at about one minute after sterilization and later at least twenty-four hours after sterilization.

As to `Oc1cc(Cl)ccc1Oc1ccc(Cl)cc1Cl` [triclosan, 2,4,4′-trichloro-2 hydroxy di-phenyl ether], the “premature polymerization (stability of monomer composition)” value in data set [1] (1 wt % in 2-octyl cyanoacrylate, about one minute and at least twenty-four hours after preparation) is on record as “does not cause premature polymerization”. Also, in data set [1] (1 wt % in 2 mL 2-octyl cyanoacrylate, observed about one minute and at least twenty-four hours after preparation, solution remains clear), the “solubility in the monomer” value is given as “soluble in the monomer”. Further, in data set [2] (1 wt % in 2-octyl cyanoacrylate, glass vial, SAL 10^-6, solution remains clear), the “compatibility with dry heat sterilization” value is “compatible”. Besides, the “compatibility with electron beam sterilization” value in data set [2] (1 wt % in 2-octyl cyanoacrylate, plastic vial, SAL 10^-6, solution remains clear) was “compatible with electron beam sterilization”. Further, in data set [2] (about one minute and at least twenty-four hours after sterilization), the “premature polymerization during or after sterilization” value is on record as “does not cause premature polymerization during or after sterilization”.
